According to patent US11529361B2, “Halogenated salicylanilides for treating Clostridium infections” (UNION therapeutics A/S, priority 2015, dated 2022):
Converted amounts (≈) assume the structure as drawn. Where two headings read alike, the source gives them in different places.

Key:
[1] = tested on: C. difficile clinical isolates; experiment: MIC determination by microbroth dilution per CLSI guideline (Example 1); format: cell-based, Clostridium difficile; conditions: Clostridioides difficile
[2] = tested on: 24 clinical isolate strains of C. difficile; experiment: Additional MIC determinations, antibacterial activity by OD600 (Example 3); format: cell-based, Clostridium difficile
rats = conditions: p.o.; cited from earlier work
[3] = tested on: Clostridium difficile 7-6011209; format: cell-based
C. difficile = conditions: published data (footnote a); cited from earlier work
[4] = tested on: Clostridium difficile infection (CDAD); conditions: phase III clinical trials, versus vancomycin; cited from earlier work
[5] = Table 3, strain 7-6011209, read-out: C. difficile Strain 7-6011209 MIC
[6] = Table 3, strain 12055, read-out: C. difficile Strain 12055 MIC

Row | SMILES | MIC ([2]; strain 7-5085357 (ST028)) [mg/L] | MIC ([2]; strain 7-6011209 (ST002)) [mg/L] | MIC ([2]; strain 7-6778909 (ST016)) [mg/L] | MIC ([2]; strain 7-6854508 (ST013)) [mg/L] | MIC ([2]; strain 7-6870430 (ST001)) [mg/L] | MIC ([2]; strain 7-7104022 (ST103)) [mg/L] | MIC ([2]; strain 7-7116411 (ST005)) [mg/L] | MIC ([2]; strain 7-7124449 (ST009)) [mg/L] | MIC ([2]; strain 7-7149204 (ST006)) [mg/L] | MIC ([2]; strain 7-7150288 (ST003)) [mg/L] | MIC ([2]; strain 7-7150318 (ST059)) [mg/L] | MIC ([2]; strain 7-7150628 (ST034)) [mg/L] | MIC ([2]; strain 7-7150997 (ST049)) [mg/L] | MIC ([2]; strain 7-7154992 (ST139)) [mg/L] | MIC ([2]; strain 7-7200552 (ST017)) [mg/L] | MIC ([2]; strain 12055) [mg/L] | MIC ([2]; strain 12060) [mg/L] | MIC ([2]; strain 12061) [mg/L] | MIC ([2]; strain 12063) [mg/L] | MIC ([2]; strain 12064) [mg/L] | other results
1 | CC(=O)Oc1c(I)cc(I)cc1C(=O)Nc1ccc(Cl)cc1 [Clioxanide] | < 0.008 | < 0.008 | < 0.008 | < 0.008 | < 0.008 | < 0.008 | 0.125 (≈ 0.231 µM) | < 0.008 | < 0.008 | < 0.008 | < 0.008 | < 0.008 | < 0.008 | < 0.008 | < 0.008 | < 0.008 | < 0.008 | < 0.008 | < 0.008 | < 0.008 | MIC [1, 5]: 0.031 mg/L (≈ 0.0572 µM); MIC [1, 6]: < 0.08 mg/L; MIC ([2]; strain 7-7363761 (ST008)): < 0.008 mg/L; MIC ([2]; strain 12062): < 0.008 mg/L; MIC ([2]; strain 12065): < 0.008 mg/L; MIC ([2]; strain 12066): 0.063 mg/L (≈ 0.116 µM)
2 | Cc1cc(C(C#N)c2ccc(Cl)cc2)c(Cl)cc1NC(=O)c1cc(I)cc(I)c1O (stereo not drawn) [Closantel] | 0.016 (≈ 0.0241 µM) | 0.016 (≈ 0.0241 µM) | 0.031 (≈ 0.0468 µM) | 0.25 (≈ 0.377 µM) | 0.031 (≈ 0.0468 µM) | 0.25 (≈ 0.377 µM) | 0.25 (≈ 0.377 µM) | 0.25 (≈ 0.377 µM) | 0.31 (≈ 0.468 µM) | 0.031 (≈ 0.0468 µM) | 0.63 (≈ 0.95 µM) | 0.063 (≈ 0.095 µM) | 0.016 (≈ 0.0241 µM) | 0.063 (≈ 0.095 µM) | 0.5 (≈ 0.754 µM) | 0.063 (≈ 0.095 µM) | 0.125 (≈ 0.189 µM) | 0.063 (≈ 0.095 µM) | 0.031 (≈ 0.0468 µM) | 0.031 (≈ 0.0468 µM) | MIC [1, 5]: 0.125 mg/L (≈ 0.189 µM); MIC [1, 6]: 0.125 mg/L (≈ 0.189 µM); MIC ([2]; strain 12062): 0.063 mg/L (≈ 0.095 µM); MIC ([2]; strain 12065): 0.063 mg/L (≈ 0.095 µM); MIC ([2]; strain 12066): 0.5 mg/L (≈ 0.754 µM); LD50 (rats): 262 to 342 mg/kg
3 | CCc1c(Cl)c(O)c(Cl)c(O)c1C(=O)O[C@H]1[C@H](O)[C@H](OC)[C@H](OC/C2=C\C=C\C[C@H](O)/C(C)=C/[C@H](CC)[C@@H](O[C@@H]3OC(C)(C)[C@@H](OC(=O)C(C)C)[C@H](O)[C@@H]3O)/C(C)=C/C(C)=C/C[C@@H]([C@@H](C)O)OC2=O)O[C@@H]1C [Fidaxomycin] | < 0.008 | < 0.008 | < 0.008 | < 0.008 | 0.016 (≈ 0.0151 µM) | < 0.008 | 2 (≈ 1.89 µM) | < 0.008 | < 0.008 | < 0.008 | < 0.008 | < 0.008 | < 0.008 | < 0.008 | < 0.008 | < 0.008 | < 0.008 | < 0.008 | < 0.008 | < 0.008 | MIC ([2]; strain 7-7363761 (ST008)): < 0.008 mg/L; MIC ([2]; strain 12062): < 0.008 mg/L; MIC ([2]; strain 12065): < 0.008 mg/L; MIC ([2]; strain 12066): < 0.008 mg/L; formation of heat-resistant spores over time [3]: suppressed formation of spores for the first 48 hours of the study; Highest MIC observed (C. difficile): 1 ^ μg/mL; MIC90 (C. difficile): 0.5^a μg/mL; clinical cure of CDAD [4]: non-inferior to vancomycin; preventing recurrence of CDAD [4]: superior to vancomycin
4 | Cc1ncc([N+](=O)[O-])n1CCO [Metronidazole] | 1 (≈ 5.84 µM) | 0.031 (≈ 0.181 µM) | 0.25 (≈ 1.46 µM) | 1 (≈ 5.84 µM) | 1 (≈ 5.84 µM) | > 8 | > 16 | 2 (≈ 11.7 µM) | 0.5 (≈ 2.92 µM) | 0.063 (≈ 0.368 µM) | 1 (≈ 5.84 µM) | 0.5 (≈ 2.92 µM) | 0.031 (≈ 0.181 µM) | 1 (≈ 5.84 µM) | 2 (≈ 11.7 µM) | 1 (≈ 5.84 µM) | 1 (≈ 5.84 µM) | 1 (≈ 5.84 µM) | 0.25 (≈ 1.46 µM) | 0.031 (≈ 0.181 µM) | MIC ([2]; strain 12065): 1 mg/L (≈ 5.84 µM); MIC ([2]; strain 12066): 1 mg/L (≈ 5.84 µM); Highest MIC observed (C. difficile): >32^a μg/mL; MIC90 (C. difficile): 1^a μg/mL
